According to patent US20160346249A1 (priority 2012, published 2016):
Several values for one entry are separate records, joined by “and”; a condition that tells them apart may be missing. Equal entries are not always repeated.

Test: Single rising oral dose (10-150 mg IR) safety, tolerance and pharmacokinetics in healthy male volunteers
Type: in vivo, human
Source text: Fifty (50) healthy male adult volunteers, between the ages of 19 and 43 years (mean±SD: 28±6 years) were enrolled in the study and randomized to the […] different treatments. […] The subjects were divided into panels of 10 subjects/dose group. Seven subjects in each group received the test drug, while three received an identical-looking placebo. […] The five treatments are outlined below:
The subjects were admitted to the clinic the night before dose administration and fasted from approximately 10 hour before to 4 hour after ingestion of the study capsules. Treatments were administered with 240 mL of mineral water between 08:00 and 09:00 hours. […] The assay calibration range was 5 to 2,000 ng/mL.
The values of Cmax and Tmax were the observed value for each subject. The terminal elimination rate constant λz was derived from the log-linear disposition phase of the concentration-time curve using linear least-squares regression for which the program determined the appropriate number of terminal points to calculate λz. At least three terminal plasma concentrations were used for estimating λz. The t1/2 (HL_Lambda_z) was calculated as ln 2/λz. AUC0-t and AUMC0-t were determined using the linear trapezoidal rule for each increasing concentration and the log-trapezoidal rule for descending concentrations. The AUC values from the last quantifiable time point to infinity was calculated as Ct/λz. This value was added to AUC0-t to obtain AUC0-∞. […] Oral clearance was calculated as Dose/AUC0-∞. The 90% confidence intervals were calculated for all of the variables.
SAS, version 8.2, was used for the analysis.

[1] = 10 mg, individual subject, listed as DOV 21,947
[2] = 25 mg, individual subject, listed as DOV 21,947
[3] = 50 mg, individual subject, listed as DOV 21,947
[4] = 100 mg, individual subject, listed as DOV 21,947
[5] = 150 mg, individual subject, listed as DOV 21,947

Clc1ccc([C@]23CNC[C@H]2C3)cc1Cl [amitifadine, (+)-1-(3,4-dichlorophenyl)-3-azabicyclo[3.1.0]hexane]
λ2 (10 mg, Geometric Mean): 0.204 h⁻¹ | AUC0-∞ (10 mg, Maximum): 551 ng·h/mL | AUC(0-t) (10 mg, Maximum): 492 ng·h/mL | MRT0-∞ (10 mg, Maximum): 6.09 h | t1/2 (10 mg, Maximum): 3.90 h | λ2 (10 mg, Maximum): 0.233 h⁻¹ | λz (10 mg, Mean (n = 7)): 0.205 h⁻¹ | λ2 (10 mg, Median): 0.200 h⁻¹ | AUC0-∞ (10 mg, Minimum): 257 ng·h/mL | AUC(0-t) (10 mg, Minimum): 227 ng·h/mL | MRT0-∞ (10 mg, Minimum): 4.72 h | t1/2 (10 mg, Minimum): 2.98 h | λ2 (10 mg, Minimum): 0.178 h⁻¹ | MRT0-∞ [1]: 5.47 h and 4.72 h and 6.09 h and 4.84 h | t1/2 [1]: 3.63 h and 3.90 h and 3.09 h and 2.98 h and 3.79 h and 3.08 h | λ2 [1]: 0.200 hr^−1 and 0.191 hr^−1 and 0.178 hr^−1 and 0.225 hr^−1 (2×) and 0.233 hr^−1 and 0.183 hr^−1 | λ2 (25 mg, Geometric Mean): 0.234 h⁻¹ | AUC0-∞ (25 mg, Maximum): 2350 ng·h/mL | AUC(0-t) (25 mg, Maximum): 2220 ng·h/mL | MRT0-∞ (25 mg, Maximum): 6.46 h | t1/2 (25 mg, Maximum): 5.25 h | λ2 (25 mg, Maximum): 0.493 h⁻¹ | λz (25 mg, Mean (n = 7)): 0.251 h⁻¹ | AUC(0-t) (25 mg, Mean (n = 7), listed as DOV 21,947): 1380 ng·h/mL | λ2 (25 mg, Median): 0.231 h⁻¹ | AUC0-∞ (25 mg, Minimum): 1080 ng·h/mL | AUC(0-t) (25 mg, Minimum): 995 ng·h/mL | MRT0-∞ (25 mg, Minimum): 4.26 h | t1/2 (25 mg, Minimum): 1.41 h | λ2 (25 mg, Minimum): 0.132 h⁻¹ | MRT0-∞ [2]: 4.26 h and 6.46 h and 4.98 h and 4.29 h and 4.39 h | λ2 [2]: 0.222 hr^−1 and 0.231 hr^−1 (2×) and 0.132 hr^−1 and 0.191 hr^−1 and 0.258 hr^−1 and 0.493 hr^−1 | λ2 (50 mg, Geometric Mean): 0.190 h⁻¹ | AUC0-∞ (50 mg, Maximum): 3270 ng·h/mL | AUC(0-t) (50 mg, Maximum): 3220 ng·h/mL | MRT0-∞ (50 mg, Maximum): 5.66 h | t1/2 (50 mg, Maximum): 4.39 h | λ2 (50 mg, Maximum): 0.245 h⁻¹ | λz (50 mg, Mean (n = 7)): 0.192 h⁻¹ | λ2 (50 mg, Median): 0.191 h⁻¹ | AUC0-∞ (50 mg, Minimum): 1690 ng·h/mL | AUC(0-t) (50 mg, Minimum): 1530 ng·h/mL | MRT0-∞ (50 mg, Minimum): 4.38 h | t1/2 (50 mg, Minimum): 2.62 h | λ2 (50 mg, Minimum): 0.158 h⁻¹ | MRT0-∞ [3]: 4.38 h and 5.43 h and 5.22 h and 5.60 h and 5.66 h | λ2 [3]: 0.213 h⁻¹ and 0.245 h⁻¹ and 0.199 h⁻¹ and 0.158 h⁻¹ and 0.191 h⁻¹ and 0.167 h⁻¹ and 0.170 h⁻¹ | λ2 (100 mg, Geometric Mean): 0.167 h⁻¹ | AUC0-∞ (100 mg, Maximum): 5960 ng·h/mL | AUC(0-t) (100 mg, Maximum): 5900 ng·h/mL | MRT0-∞ (100 mg, Maximum): 7.03 h | t1/2 (100 mg, Maximum): 4.35 h | λ2 (100 mg, Maximum): 0.177 h⁻¹ | λz (100 mg, Mean (n = 7)): 0.167 h⁻¹ | λ2 (100 mg, Median): 0.164 h⁻¹ | AUC0-∞ (100 mg, Minimum): 4030 ng·h/mL | AUC(0-t) (100 mg, Minimum): 3960 ng·h/mL | MRT0-∞ (100 mg, Minimum): 4.85 h | t1/2 (100 mg, Minimum): 3.92 h | λ2 (100 mg, Minimum): 0.159 h⁻¹ | MRT0-∞ [4]: 7.03 h and 5.71 h and 5.63 h and 4.85 h | λ2 [4]: 0.176 hr^−1 and 0.162 hr^−1 and 0.173 hr^−1 and 0.159 hr^−1 (2×) and 0.164 hr^−1 and 0.177 hr^−1 | λ2 (150 mg, Geometric Mean): 0.191 h⁻¹ | AUC0-∞ (150 mg, Maximum): 11100 ng·h/mL | AUC(0-t) (150 mg, Maximum): 10900 ng·h/mL | MRT0-∞ (150 mg, Maximum): 7.14 h | t1/2 (150 mg, Maximum): 4.87 h | λ2 (150 mg, Maximum): 0.288 h⁻¹ | λz (150 mg, Mean (n = 7)): 0.195 h⁻¹ | t1/2 (150 mg, Mean (n = 7), listed as DOV 21,947): 3.91 h | λ2 (150 mg, Median): 0.189 h⁻¹ | AUC0-∞ (150 mg, Minimum): 6590 ng·h/mL | AUC(0-t) (150 mg, Minimum): 6390 ng·h/mL | MRT0-∞ (150 mg, Minimum): 4.66 h | t1/2 (150 mg, Minimum): 2.41 h | λ2 (150 mg, Minimum): 0.142 h⁻¹ | MRT0-∞ [5]: 7.03 h and 6.70 h and 4.66 h and 7.14 h | λ2 [5]: 0.177 h⁻¹ and 0.142 h⁻¹ and 0.189 h⁻¹ and 0.288 h⁻¹ and 0.200 h⁻¹ and 0.159 h⁻¹ and 0.209 h⁻¹ | variability of Cmax and AUC (all doses): ≤ 30% | MRT inf (human, plasma, oral, 10 mg, individual subject, read-out: MRT0-∞): 5.36 h
